From patent US8124647B2 (priority 2002, dated 2012) come the findings set out here.

Assay [1] has as its target T1, human androgen receptor (Homo sapiens, UniProt P10275).
T1 construct: expressed in transfected cells; host or cells: CHO cells, cell line CHO-AR-pMMTV-LUC 1G12-A5-CA
T1 sequence (P10275 1-920): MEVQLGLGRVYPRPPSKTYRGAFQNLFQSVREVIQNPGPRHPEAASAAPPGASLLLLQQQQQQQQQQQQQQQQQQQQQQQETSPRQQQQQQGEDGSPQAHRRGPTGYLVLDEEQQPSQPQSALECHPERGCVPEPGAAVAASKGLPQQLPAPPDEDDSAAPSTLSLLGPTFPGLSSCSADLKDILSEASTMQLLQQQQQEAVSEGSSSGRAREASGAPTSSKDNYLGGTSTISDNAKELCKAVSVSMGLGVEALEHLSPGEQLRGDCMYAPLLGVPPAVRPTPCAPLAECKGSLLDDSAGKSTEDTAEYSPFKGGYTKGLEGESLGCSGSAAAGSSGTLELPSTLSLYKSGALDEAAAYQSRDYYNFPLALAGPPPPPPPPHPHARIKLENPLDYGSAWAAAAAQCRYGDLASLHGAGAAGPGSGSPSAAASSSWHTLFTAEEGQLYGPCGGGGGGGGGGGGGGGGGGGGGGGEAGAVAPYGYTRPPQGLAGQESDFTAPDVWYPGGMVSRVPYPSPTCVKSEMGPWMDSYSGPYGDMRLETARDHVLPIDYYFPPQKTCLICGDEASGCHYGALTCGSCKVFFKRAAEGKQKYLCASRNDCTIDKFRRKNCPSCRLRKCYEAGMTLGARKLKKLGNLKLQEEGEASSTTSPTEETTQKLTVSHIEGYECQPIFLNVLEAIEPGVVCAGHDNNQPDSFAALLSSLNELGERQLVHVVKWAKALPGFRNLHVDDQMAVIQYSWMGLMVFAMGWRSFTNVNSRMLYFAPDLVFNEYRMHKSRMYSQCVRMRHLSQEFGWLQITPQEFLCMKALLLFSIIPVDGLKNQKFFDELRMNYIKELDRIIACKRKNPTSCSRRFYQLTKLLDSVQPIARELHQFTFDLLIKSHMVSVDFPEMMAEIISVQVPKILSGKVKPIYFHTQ
The assay is described as follows: androgenic activity (EC50, potency, efficacy), transactivation bioassay in CHO-AR-pMMTV-LUC cells in the presence of 0.1 μmol/l onapristone (Table 5). The assay is classed as cell-based. Conditions: for Emax: read-out: ago efficacy; for ago potency: potency expressed as percentage of DHT activity, in the presence of 0.1 μmol/l onapristone. On the procedure:
The androgenic activity (EC50, potency, and efficacy) of the compounds in Table 5 was determined in an in vitro bioassay of Chinese hamster ovary (CHO) cells stably transfected with the human androgen receptor expression plasmid and a reporter plasmid in which the MMTV promoter is linked to the luciferase reporter gene. The cell line CHO-AR-pMMTV-LUC 1G12-A5-CA is described in Schoonen et al. (J. Steroid Biochem. Moles. Biol. […]; 74: 213-222). The androgen receptor activity of compounds was determined in the presence of 0.1 μmol/l onapristone. The maximal efficacy in the presence of 100 nmol/l DHT was set as 100%. The potencies are expressed as percentage of DHT activity.

The target in assay [2] is T1, human androgen receptor. In words: cell-based. To be noted: in the presence of 1 nM DHT; for EC50: antiandrogenic activity, read-out: ant EC50. On the procedure:
(§1) Compounds were tested for their Androgen Receptor activity in a transactivation assay and in a binding assay.
(§2) The (anti-)androgenic activity of test compounds (EC50 and intrinsic activity) was determined in an in vitro bioassay of Chinese hamster ovary (CHO) cells stably transfected with the human androgen receptor expression plasmid and a reporter plasmid in which the MMTV-promoter is linked to the luciferase reporter gene. The cell-line CHO-AR-pMMTV-LUC 1G12-A5-CA is described in Schoonen et al. (2000), Journal of Steroid Biochemistry and Molecular Biology 74(4):213-222. The antiandrogenic activity of a test compound was determined by the inhibition of the transactivation via the androgen receptor of the enzyme luciferase in the presence of 1 nM DHT (5α-dihydrotestosterone, 17β-hydroxy-5α-androstan-3-one). Intrinsic activity of antiandrogenic activity was determined in the presence of the reference antiandrogen 2-Hydroxy-2-methyl-N-(4-nitro-3-trifluoromethyl-phenyl)-propionamide(Hydroxyflutamide), and set at 100%. For androgenic activity, maximal intrinsic activity in the presence of 100 nM DHT was set at 100%.

The target in assay [3] is T1, human androgen receptor. In words: androgenic activity (EC50 and intrinsic activity), transactivation bioassay in CHO-AR-pMMTV-LUC cells (Table 4). The assay is classed as cell-based. On the procedure: as §1, §2
Setting [4] is: maximal intrinsic activity, activity in the presence of 100 nM DHT set at 1.00, CHO-AR-pMMTV-LUC cells, 0.1 μmol/l onapristone.
The mark [5] stands for this setting: androgenic activity, read-out: ago EC50.

Where two headings read alike, the source gives them in different places. A value given as a limit tells only on which side of the number the result lay.

Consider `CN(C)C(=O)c1ccc2c(Sc3ccccc3[N+](=O)[O-])cn(Cc3ccccn3)c2c1` [Compound 109, 3-(2-Nitro-phenylsulfanyl)-1-pyridin-2-ylmethyl-1H-indole-6-carboxylic acid dimethylamide], for which, on human androgen receptor [1] (setting [4]), the Emax was over 80%. The ago potency result at human androgen receptor [1] (CHO-AR-pMMTV-LUC cells) is “+ (between 1% and 5%)”.

Consider `O=[N+]([O-])c1ccccc1Sc1cn(Cc2cc(F)cc(F)c2)c2cc(NS(=O)(=O)c3ccsc3)ccc12` [Compound 107, Thiophene-3-sulfonic acid [1-(3,5-difluoro-benzyl)-3-(2-nitro-phenylsulfanyl)-1H-indol-6-yl]-amide], for which the Emax on human androgen receptor [1] (setting [4]) is over 80%. In addition, the ago potency result on human androgen receptor [1] (CHO-AR-pMMTV-LUC cells) was “+ (between 1% and 5%)”.

For `CC(=O)Nc1ccc2c(Sc3ccccc3[N+](=O)[O-])cn(Cc3cccnc3)c2c1` [Compound 103, N-[3-(2-Nitro-phenylsulfanyl)-1-pyridin-3-ylmethyl-1H-indol-6-yl]-acetamide], at human androgen receptor [1] (setting [4]), the Emax lay in the range of 50 to 80%. The ago potency entry on human androgen receptor [1] (CHO-AR-pMMTV-LUC cells) was “+ (between 1% and 5%)”.

Take `CNC(=O)c1ccc2c(Sc3ccccc3[N+](=O)[O-])cn(Cc3cccnc3)c2c1` [Compound 112, 3-(2-Nitro-phenylsulfanyl)-1-pyridin-3-ylmethyl-1H-indole-6-carboxylic acid methylamide]: the Emax on human androgen receptor [1] (setting [4]) was in the range of 20 to 50%. In addition, at human androgen receptor [1] (CHO-AR-pMMTV-LUC cells), the ago potency entry is “+ (between 1% and 5%)”.

With `O=C(CF)Nc1ccc2c(Sc3ccccc3[N+](=O)[O-])cn(Cc3ccccn3)c2c1` [Compound 100, 2-Fluoro-N-[3-(2-nitro-phenylsulfanyl)-1-pyridin-2-ylmethyl-1H-indol-6-yl]-acetamide], on human androgen receptor [1] (CHO-AR-pMMTV-LUC cells), the ago potency result was “+ (between 1% and 5%)”. At human androgen receptor [1], the Emax was over 80%.

As for `N#Cc1cccc(Cn2cc(Sc3ccccc3[N+](=O)[O-])c3ccc(C#N)cc32)c1` [Compound 125, 1-(3-Cyano-benzyl)-3-(2-nitro-phenylsulfanyl)-1H-indole-6-carbonitrile], the Emax on human androgen receptor [1] (setting [4]) was over 80%. The ago potency result at human androgen receptor [1] (CHO-AR-pMMTV-LUC cells) was “+ (between 1% and 5%)”.

`COc1ccc2c(Sc3ccccc3[N+](=O)[O-])cn(Cc3ccc(Cl)nc3)c2c1` [Compound 96, 1-(6-Chloro-pyridin-3-ylmethyl)-6-methoxy-3-(2-nitro-phenylsulfanyl)-1H-indole]: at human androgen receptor [1] (setting [4]), the Emax was 20 to 50%. Further, the ago potency result on human androgen receptor [1] (CHO-AR-pMMTV-LUC cells) is “± (between 0.1% and 1%)”.

In the case of `NC(=O)c1ccc2c(Sc3ccccc3[N+](=O)[O-])cn(Cc3ccccn3)c2c1` [Compound 111, 3-(2-Nitro-phenylsulfanyl)-1-pyridin-2-ylmethyl-1H-indole-6-carboxylic acid amide], the Emax on human androgen receptor [1] (setting [4]) is 20 to 50%. Moreover, the ago potency entry on human androgen receptor [1] (CHO-AR-pMMTV-LUC cells) was “± (between 0.1% and 1%)”.

In the case of `O=C(CF)Nc1ccc2c(Sc3ccccc3[N+](=O)[O-])cn(Cc3cc(F)cc(F)c3)c2c1` [Compound 97, N-[1-(3,5-Difluoro-benzyl)-3-(2-nitro-phenylsulfanyl)-1H-indol-6-yl]-2-fluoro-acetamide], the ago potency entry at human androgen receptor [1] (CHO-AR-pMMTV-LUC cells) is “+ (between 1% and 5%)”. At human androgen receptor [1], the Emax is over 80%.

For `O=C(NC1CC1)c1ccc2c(Sc3ccccc3[N+](=O)[O-])cn(Cc3cccnc3)c2c1` [Compound 114, 3-(2-Nitro-phenylsulfanyl)-1-pyridin-3-ylmethyl-1H-indole-6-carboxylic acid cyclopropylamide], on human androgen receptor [1] (setting [4]), the Emax is over 80%. In addition, the ago potency result at human androgen receptor [1] (CHO-AR-pMMTV-LUC cells) was “+ (between 1% and 5%)”.

Broadly, the EC50 is the midpoint of the concentration-response curve. For `COc1ccc2c(Sc3ccccc3[N+](=O)[O-])cn(Cc3ccccn3)c2c1.Cl` [Compound 10, 6-Methoxy-3-(2-nitro-phenylsulfanyl)-1-pyridin-2-ylmethyl-1H-indole monohydrochloride], the EC50 on human androgen receptor [2] is over 10000 nM; at human androgen receptor [3] (setting [5]) it was 5 to 100 nM. Further, the ant efficacy entry on human androgen receptor [2] (reference antiandrogen Hydroxyflutamide set at 100%) was “− (− <0.20)”.

With `O=[N+]([O-])c1ccccc1Sc1cn(Cc2cc(F)cc(F)c2)c2cccc(Cl)c12` [Compound 54], the EC50 at human androgen receptor [2] is over 10000 nM; at human androgen receptor [3] (setting [5]) it was 5 to 100 nM.

Turning to `COc1ccc2c(Sc3ccccc3[N+](=O)[O-])cn(Cc3cccc([N+](=O)[O-])c3C)c2c1` [Compound 6], the EC50 is over 10000 nM on human androgen receptor [2] and under 1000 nM on human androgen receptor [3] (ago EC50, androgenic activity).

Turning to `COc1ccc2c(Sc3ccccc3[N+](=O)[O-])cn(Cc3cnc(Cl)s3)c2c1` [Compound 87], the EC50 was over 10000 nM on human androgen receptor [2] and 5 to 100 nM on human androgen receptor [3] (setting [5]).

As for `COc1ccc2c(Sc3ccccc3[N+](=O)[O-])cn(Cc3ccc(Cl)cc3)c2c1` [Compound 81], the EC50 on human androgen receptor [2] is under 5 nM; at human androgen receptor [3] (setting [5]), under 1000 nM.

With `COc1ccc2c(Sc3ccccc3[N+](=O)[O-])cn(Cc3ccc(C#N)cc3)c2c1` [Compound 82], the figures for the EC50 on human androgen receptor [2] and on human androgen receptor [3] (setting [5]) were over 10000 nM and 5 to 100 nM, respectively.

Consider `COc1ccc2c(Sc3ccccc3[N+](=O)[O-])cn(Cc3cc(F)cc(C(F)(F)F)c3)c2c1` [Compound 69], for which the EC50 on human androgen receptor [2] was over 10000 nM; at human androgen receptor [3] (setting [5]), 5 to 100 nM.

For the molecule `COc1ccc2c(Sc3ccccc3[N+](=O)[O-])cn(Cc3cc(Cl)cc(Cl)c3)c2c1` [Compound 15], the values for the EC50 at human androgen receptor [2] and at human androgen receptor [3] (setting [5]) were over 10000 nM and 5 to 100 nM, respectively.

In the case of `COCCNC(=O)c1ccc2c(Sc3ccccc3[N+](=O)[O-])cn(Cc3cc(F)cc(F)c3)c2c1` [Compound 38], the EC50 on human androgen receptor [2] is over 10000 nM; at human androgen receptor [3] (setting [5]), under 5 nM.

Regarding `COC(=O)c1ccc2c(Sc3ccccc3[N+](=O)[O-])cn(Cc3cc(F)cc(F)c3)c2c1` [Compound 31, 1-(3,5-Difluoro-benzyl)-3-(2-nitro-phenylsulfanyl)-1H-indole-6-carboxylic acid methyl ester], the EC50 is over 10000 nM on human androgen receptor [2] and under 5 nM on human androgen receptor [3] (setting [5]).

Turning to `COc1ccc2c(Sc3ccccc3[N+](=O)[O-])cn(Cc3cccc(C)c3)c2c1` [Compound 73], the EC50 on human androgen receptor [2] is over 10000 nM; on human androgen receptor [3] (setting [5]), 5 to 100 nM.

Turning to `O=[N+]([O-])c1ccccc1Sc1cn(Cc2cc(F)cc(F)c2)c2cc(Cl)ccc12` [Compound 25], the EC50 at human androgen receptor [2] is over 10000 nM; on human androgen receptor [3] (setting [5]), under 5 nM.

Take `O=[N+]([O-])c1ccccc1Sc1cn(Cc2cc(F)cc(F)c2)c2cc(F)ccc12` [Compound 50]: the 50% effective concentration (EC50) at human androgen receptor [2] was over 10000 nM; on human androgen receptor [3] (setting [5]), 5 to 100 nM.

On to `O=C(NCc1ccco1)c1ccc2c(Sc3ccccc3[N+](=O)[O-])cn(Cc3cc(F)cc(F)c3)c2c1` [Compound 34], for which the EC50 was over 10000 nM at human androgen receptor [2] and 5 to 100 nM at human androgen receptor [3] (setting [5]).

With `O=C(c1ccc2c(Sc3ccccc3[N+](=O)[O-])cn(Cc3cc(F)cc(F)c3)c2c1)N1CCCC1` [Compound 27], the values for the EC50 at human androgen receptor [2] and at human androgen receptor [3] (setting [5]) were over 10000 nM and 5 to 100 nM, respectively.

As for `COc1ccc2c(Sc3ccccc3[N+](=O)[O-])cn(Cc3ccccc3C)c2c1` [Compound 7], the EC50 at human androgen receptor [2] is over 10000 nM; at human androgen receptor [3] (setting [5]), 5 to 100 nM.

As for `O=[N+]([O-])c1ccccc1Sc1cn(Cc2cc(F)cc(F)c2)c2ccccc12` [Compound 52], the EC50 on human androgen receptor [2] is over 10000 nM; at human androgen receptor [3] (setting [5]), 5 to 100 nM.

As to `CNC(=O)c1ccccc1Sc1cn(Cc2cc(F)cc(F)c2)c2cc(OC)ccc12` [Compound 17, 2-[1-(3,5-Difluoro-benzyl)-6-methoxy-1H-indol-3-ylsulfanyl]-N-methyl-benzamide], the EC50 at human androgen receptor [2] was under 1000 nM; on human androgen receptor [3] (setting [5]), over 10000 nM.
